Experimental data from patent US20210228741A1, “METHODS AND COMPOSITIONS TO STIMULATE RETINAL REGENERATION” (UNIVERSITY OF WASHINGTON, priority 2018, published 2021).

How the values were obtained:
[1] = test system: Ascl1-reporter Müller glia; assay: miRNA mimic/antagomiR transfection of P11 MG cultures from Ascl1-CreER:tdTomato reporter mice; type: cell-based, mouse
Description: To test whether miRNAs regulate the neurogenic competence of MG, we used primary dissociated cell cultures, since this method has proven effective for identifying reprogramming factors that are effective both in vitro and in vivo (Jorstad et al., 2017; Pollak et al., 2013; Ueki et al., 2015). We hypothesized that miRNAs highly expressed in RPCs may be important in establishing and maintaining the RPC gene expression pattern. One prediction of this hypothesis is that over-expression of the RPC-miRNAs in MG would cause the MG to adopt a progenitor-like gene expression profile. […]
MG cultures from P11 Ascl1-CreER:tdTomatoflSTOP/flSTOP mice were transfected with either a cocktail of all four RPC-miR mimics, or each miRNA mimic individually (FIG. 10B). We added 4-Hydroxy-tamoxifen to the cultures to activate the cre-recombinase and monitored the cells for tdTomato expression. […]
Müller glia were dissociated (see above) from postnatal day (P) 11/12 mice and adult (one month, 2, and 4 months) and grown in Neurobasal medium supplemented with N-2, tetracycline-free 10% fetal bovine serum (FBS, Clontech), and epidermal growth factor (EGF, R&D Systems, 100 ng/mL) as described previously (Ueki et al., 2012). […] EdU was added either with the onset of culturing to track cell proliferation of MG lineage or after transfection to quantify cell proliferation due to the treatment. […]

[2] = test system: Ascl1 binding at STAT3 bound regions; assay: Ascl1 ChIP-seq on control and STATi-treated cultured MG; type: cell-based, mouse; conditions: cultured P12 MG, doxycycline-induced Ascl1
Protocol: To directly assess the effect that STAT pathway activation has on Ascl1 binding at Id genes and more broadly across the genome during MG reprogramming, we performed an Ascl1 ChIP-seq on control and STATi-treated MG. Frozen stocks of MG from P12 germline-rtTA:tetO429 Ascl1 mice were thawed and cultured to confluency for 2 days in high FBS growth media. Cells were then given a low FBS media with STATi or vehicle for the remaining 4 DIV. At 3 DIV (1 day after STATi), doxycyline was administered to induce Ascl1 overexpression in the MG. Cells were then collected and fixed for ChIP-seq after 6 DIV. FASTQ files were aligned to the mm10 genome using Bowtie2 and peaks were called using MACS2. […] Both datasets contained the canonical Ascl1 E-box as the top scoring motif, as determined by HOMER, with strong central enrichment of peaks from both datasets around the Ascl1 motif. […]
Ascl1 Chromatin Immunoprecipitation-Sequencing (ChIP-Seq): P0 retinas or cultured, post-natal day 12, Müller glia (+/−Ascl1 overexpression, rtTA germline:tetO-Ascl1-ires-GFP mice ±doxycycline) were digested with papain/DNase to single cells and fixed with 0.75% formaldehyde for 10 minutes at room temperature. […] Libraries were prepared with standard Illumina adaptors and sequenced to an approximate depth of 36 million reads each. Sequence reads (36 bp) were mapped to the mouse mm9 genome using bwa (v 0.7.12-r1039). […]

[3] = test system: WT retinas; conditions: mouse, in vivo
Description: A) Experimental paradigm for analyzing STAT3 phosphorylation by western blot in MG. P11 retinas were dissociated and grown in a growth media containing mEGF for 7 DIV. MG were passaged to eliminate residual neurons and cultured in a media containing doxycycline to induce Ascl1 expression for 6 DIV. […] B) Representative images from confluent cultures of non-treated, DOX-treated, and DOX+STATi-treated MG just before harvesting. C) Representative western blot for pSTAT3 (Y705), STAT3, and Beta-actin on non-treated, Dox-treated, and Dox+STATi-treated MG cultures. […] Scale bars for B and E are 25 and 40 μm, respectively.
Immunohistochemistry (IHC): Upon euthanasia of adult mice, eyes were removed and comeas dissected away. Globes were then fixed for 1 hour in 4% PFA in PBS followed by an overnight incubation in 30% sucrose in PBS at 4° C. Fixed eyes were then frozen in O.T.C. (Sakura Finetek) at −80° C. until sectioned. Frozen eyes were sectioned on a cryostat (Leica) at 16-18 μm thick and were stored at −20° C. until staining. All washes were 3 times 20 minutes in PBS on a rotating plate at room temperature. Slides were washed then blocked in 10% normal horse serum, 0.5% Triton X-100 in PBS for a minimum of 1 hour prior to primary. All primary antibodies were diluted in blocking solution and applied to tissue for a minimum of 3 hours. […]

Compound | Ascl1:tdTomato+ cells (Ascl1-reporter expression) ([1]; P11 MG cultures, days post-transfection vs control) | conversion of MG into a neuronal/RPC phenotype ([1]; young (P11) MG in vitro, summary statement) | Ascl1 binding (ChIP-seq peaks) at STAT3 bound regions near Id1 and Id3 [2] | toxicity (TUNEL staining) [3]
miR-25: miR-25 mimic, CAUUGCACUUGUCUCGGUCUGA (SEQ ID NO: 22); double-stranded, preprocessed miRNA (double-stranded mimic, other strand not given here) | significant increase | approximately 40% |  | 
CN(CC(=O)N(Cc1ccc(C2CCCCC2)cc1)c1ccc(C(=O)O)cc1)S(=O)(=O)c1c(F)c(F)c(F)c(F)c1F [SH-4-54] |  |  | Decreased Ascl1 binding | not found to be toxic
